Assay results published in patent publication US20080318861A1, “Mucosal Delivery of Stabilized Formulations of Exendin” (NASTECH PHARMACEUTICAL COMPANY INC., priority 2005, published 2008).

Legend:
[1] = system: normal, human-derived tracheal/bronchial epithelial cells (EpiAirway Tissue Model); assay: MTT cell viability assay; assay type: cell-based; details: for toxicity / cell viability in excipient screening (in words): cell viability as measured by LDH and MTT, exenatide formulation containing the named excipient
Excerpt: The extraction plate was covered and scaled to reduce evaporation of extractant.

[2] = Physical stability by clarity (absorbance at 630 nm) on storage at 5° C.; details: stored at 5° C. (refrigerated) for at least two weeks
Protocol: In vitro testing of exenatide formulations included a preservatives screen. Physical stability after storage at 5° C. was measured for all formulations tested in vitro. Exenatide formulations were placed in 1 cc glass vials and closed with trifoil lined caps and stored at 5° C. for at least two weeks. Physical stability was monitored by measuring clarity. Clarity of a formulation was determined by measuring absorbance at 630 nm, using the μQuant optical density plate reader for each formulation at days 0, 7, and 14. A 200 μL volume from each vial was placed in a 96-well plate and read against a background of water.
Varying concentrations of sodium benzoate (NaBz) and benzalkonium chloride (BAK), were screened for their effect on physical stability of the three formulations used in in vivo studies. Sodium benzoate was added at 1.0, 2.5, and 5.0 mg/mL, while BAK was tested at 0.2, 1.0, 2.0, and 4.0 mg/mL. To prepare the samples, varying amounts of stock solutions of the two preservatives were added to the three prepared formulations dosed in the PK study. […] The resulting formulations were stored at 5° C. for 5.5 weeks. Physical stability was monitored by measuring the absorbance of the solution at 630 nm.
Sodium benzoate was added at concentrations of 1.0 to 5.0 mg/mL, while BAK was tested at 0.05, 0.075, and 0.1 mg/mL. To prepare the samples, varying amounts of stock solutions of the two preservatives were added to the formulations prepared in the PK study and the pH was adjusted to 4.5 with HCl as necessary. The resulting formulations were stored at 5° C. for 4 weeks. Physical stability was monitored by measuring the absorbance of the solution at […].
The second formulation lacked any buffer to test the effect of the buffer itself on physical stability.

[3] = system: epithelial tissue barrier (EpiAirway Tissue Model); assay: In vitro permeation of exenatide across the cellular barrier (EIA analysis); details: for exenatide permeation (in words): compared with AKL-225-126-2 or control without enhancers
Excerpt: Initial studies focused on optimizing the concentrations of Me-β-CD, DDPC, EDTA, and gelatin to enhance exenatide permeation across an epithelial tissue layer.
A second round of studies, series B, systematically screened several excipients for their potential to enhance exenatide permeation to a greater degree than the Me-β-CD, DDPC, EDTA, and gelatin combinations. […] Initially, each excipient (except for those classified as “generally regarded as safe” (GRAS) by the FDA, recombinant gelatins, and PN159), was tested at two concentrations or in combination with Me-β-CD, DDPC, or EDTA. As with series A formulations, each formulation was evaluated for exenatide permeation, ability to reduce TER while not adversely affecting cell viability, and formulation physical stability.

[4] = system: normal, human-derived tracheal/bronchial epithelial cells (EpiAirway Tissue Model); assay: Transepithelial electrical resistance (TER) in the in vitro nasal epithelial model; assay type: cell-based; details: 60 min exposure
Excerpt: A cell line from MatTek Corp. (Ashland, Mass.) was used as the source of normal, human-derived tracheal/bronchial epithelial cells (EpiAirway™ Tissue Model). […] The cells were provided as inserts grown to confluence on Millipore Milicell-CM filters comprised of transparent hydrophilic Teflon (PTFE). […] TER measurements were accomplished using the Endohm-12 Tissue Resistance Measurement Chamber connected to the EVOM Epithelial Voltohmmeter (World Precision Instruments, Sarasota, Fla.) with the electrode leads. The electrodes and a tissue culture blank insert were equilibrated for at least twenty (20) minutes in phosphate buffered solution with the power off prior to checking calibration. The background resistance was measured with 1.5 mL media in the Endohm tissue chamber and 300 μL media in a blank Millicell-CM insert. […] The background resistance of the blank insert was 5-12 ohms.
TER was measured before and after the sixty (60) minute incubation. […] After the 60 minute incubation with test samples, 200 μL of fresh media was gently added to the apical surface of each test sample insert and final TER was measured for each insert. […] Resistance is expressed as follows: (resistance measured−blank)×0.6 cm^2.

[5] = system: normal, human-derived tracheal/bronchial epithelial cells (EpiAirway Tissue Model); assay: Lactate dehydrogenase (LDH) cytotoxicity assay; assay type: cell-based
Protocol: The amount of cell death was assayed by measuring the loss of lactate dehydrogenase (LDH) from the cells using a CytoTox 96 Cytoxicity Assay Kit (Promega Corp., Madison, Wis.). Fresh, cell-free culture medium was used as a blank. 50 μl harvested media (stored at 4° C.) was loaded in a 96-well plate. Substrate Solution (50 μl) was added to each well and the plates were incubated for thirty (30) minutes at ambient temperature in the dark. Following incubation, 50 μl of Stop Solution was added to each well and the reaction was monitored at A490 using an optical density plate reader. Media alone applied to the apical side served as a negative control while triton X served as the positive control for the LDH assay.

Row | Compound | toxicity / cell viability in excipient screening (in words) [1] | physical stability (clarity) [2] | exenatide permeation (in words) [3] | further results
1 | CCCCCCCCCCCCCCCC(=O)OC(CC(=O)[O-])C[N+](C)(C)C (racemic) [Palmitoyl-DL-carnitine, palmitoyl-DL-carnitine] | toxic at high concentrations | physically instable without Me-β-CD |  | 
2 | O=C(O)CN(CCN(CC(=O)O)CC(=O)O)CC(=O)O [EDTA] | cell viability began to decrease |  |  | 
3 | C[C@H](CCC(=O)NCC(=O)[O-])[C@H]1CC[C@H]2[C@@H]3[C@H](O)C[C@@H]4C[C@H](O)CC[C@]4(C)[C@H]3C[C@H](O)[C@]12C.[Na+] [Sodium glycocholate, sodium glycocholate] |  | physically instable at high concentrations |  | 
4 | CCCCCCCCC(=O)OC[C@H](COP(=O)([O-])OCC[N+](C)(C)C)OC(=O)CCCCCCCC [dinonanoyl glycero phosphatidylcholine] |  | becoming turbid in less than two weeks at refrigerated conditions |  | 
5 | CCO [ethanol] |  |  | did not enhance exenatide permeation | 
6 | CCCCCCCCO[C@@H]1O[C@H](CO)[C@H](O)[C@H](O)[C@H]1O [galactopyranoside, n-Octyl-β-D-galactopyranoside] | toxic at 10 mg/mL |  |  | 
7 | CCCCCCCC/C=C\CCCCCCCC(=O)O [oleic acid] | lowered cell viability |  |  | 
8 | CC(O)CO (stereo not shown) [propylene glycol] |  |  | failed to enhance permeation at all | 
9 | CCCCCCCCCC(=O)[O-].[Na+] [sodium caprate] | low cell viability at 50 mM alone | physical instability in the absence of Me-β-CD |  | 
10 | CCCCCCCC(=O)[O-].[Na+] [sodium caprylate] | toxic at 20 mM with Me-β-CD and EDTA | physical instability in the absence of Me-β-CD | failed to enhance exenatide permeation to any extent alone or with permeation enhancers | 
11 | OC[C@H]1O[C@@H]2O[C@H]3[C@H](O)[C@@H](O)[C@@H](O[C@H]4[C@H](O)[C@@H](O)[C@@H](O[C@H]5[C@H](O)[C@@H](O)[C@@H](O[C@H]6[C@H](O)[C@@H](O)[C@@H](O[C@H]7[C@H](O)[C@@H](O)[C@@H](O[C@H]8[C@H](O)[C@@H](O)[C@@H](O[C@H]1[C@H](O)[C@H]2O)O[C@@H]8CO)O[C@@H]7CO)O[C@@H]6CO)O[C@@H]5CO)O[C@@H]4CO)O[C@@H]3CO [β-cyclodextrin] |  | became turbid at refrigerated conditions |  | 
12 | Tween-80 |  |  | failed to enhance exenatide permeation to the same extent as formulation AKL-225-126-2 | 
13 | dimethyl-β-cyclodextrin [DMe-β-CD] | more toxic to the cells than Me-β-CD |  |  | fold increase in exenatide permeation over AKL-225-126-2 ([3]; full dose volume (100 µL)): 1.5 fold
14 | hydroxypropyl-β-cyclodextrin [H-β-CD] |  |  | did not increase permeation significantly | 
15 | triton X |  |  |  | TER reduction (in words) [4]: lowest possible TER; cytotoxicity as measured by % LDH (in words) [5]: significant toxicity; cytotoxicity as measured by % MTT (in words) [1]: significant toxicity
